The source made the active and inactive calls. No cut-off for these calls is given here.
Columns and labels:
MM.1R [1] = assay: Effect on IRF4 expression in human MM1.R cells with siRNA mediated IRF4 knockdown by Western blot analysis; assay type: functional, cell-based
NCI-H929 [2] = assay: Induction of cell cycle arrest in human NCI-H929 cells assessed as accumulation of cells at G2 phase at 0.5 uM measured after 24 hrs by flow cytometry analysis (reference value: 13.37%); assay type: functional
NCI-H929 [3] = assay: Induction of cell cycle arrest in human NCI-H929 cells assessed as inhibition of CDC2 protein expression at 0.1 to 1 uM; assay type: functional, cell-based; settings: dose 0.1-1 µM
[4] = Potency index, ratio of IC50 for lenalidomide to test compound IC50 for antiproliferative activity against human MM1.R cells assessed as inhibition of cell growth measured after 72 hrs by MTS assay; assay type: functional
[5] = biological target: T1, Interferon regulatory factor 3 (Homo sapiens) (UniProt Q14653); assay: Induction of thermal stabilization of IRF3 in human NCI-H929 cells at 42 to 42.3 degree C by […] method; assay type: cell-based
T1 sequence (whole entry): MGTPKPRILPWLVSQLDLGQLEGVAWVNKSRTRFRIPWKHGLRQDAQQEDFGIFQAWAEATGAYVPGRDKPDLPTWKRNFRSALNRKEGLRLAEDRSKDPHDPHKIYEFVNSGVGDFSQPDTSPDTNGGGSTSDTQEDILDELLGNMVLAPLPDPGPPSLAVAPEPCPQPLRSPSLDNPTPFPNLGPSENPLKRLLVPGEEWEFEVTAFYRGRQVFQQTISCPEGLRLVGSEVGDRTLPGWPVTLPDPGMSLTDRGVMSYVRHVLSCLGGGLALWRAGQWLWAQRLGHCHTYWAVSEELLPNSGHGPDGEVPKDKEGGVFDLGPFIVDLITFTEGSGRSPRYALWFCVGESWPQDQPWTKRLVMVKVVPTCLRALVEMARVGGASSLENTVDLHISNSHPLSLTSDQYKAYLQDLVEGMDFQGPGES

[6] = Toxicity in Balb/C nude mouse assessed as change in body weight at 12.5 to 25 mg/kg administered once daily and measured every three days for 34 days; assay type: organism-based; settings: in vivo, 816 h, dose 12.5-25 mg/kg, time 34 day
NCI-H929 [7] = assay: Antiproliferative activity against human NCI-H929 cells with siRNA mediated IRF4#1 knockdown at 0.125 to 1 uM measured upto 5 days by MTS assay; assay type: functional, cell-based; settings: dose 0.125-1 µM, time <= 5.0 day
NCI-H929 [8] = assay: Downregulation of Blimp1 expression in human NCI-H929 cells measured after 24 hrs by qRT-PCR analysis; assay type: functional, cell-based; settings: dose 0.125-1 µM
MM.1R [9] = assay: Downregulation of CMYC expression in human MM1.R cells measured after 24 hrs by qRT-PCR analysis; assay type: functional, cell-based; settings: dose 0.125-1 µM
HaCaT = assay: Effect on IRF4 expression in human HaCaT cells by Western blot analysis; assay type: functional, cell-based
NCI-H929 [10] = assay: Antitumor activity against human NCI-H929 cells xenografted in Balb/C nude mouse model assessed as increase in gammaH2AX expression at 25 mg/kg by Western blot analysis; assay type: functional, organism-based
NCI-H929 [11] = assay: Induction of cell cycle arrest in human NCI-H929 cells assessed as accumulation of cells at G2 phase at 0.125 uM measured after 24 hrs by flow cytometry analysis (reference value: 13.37%); assay type: functional
[12] = Cmax in ICR mouse plasma at 1.0 mg/kg, iv; assay type: ADME, organism-based
[13] = Tmax in ICR mouse plasma at 10 mg/kg, po; assay type: ADME, organism-based
[14] = Toxicity in Balb/C nude mouse assessed as changes in main organ at 12.5 to 25 mg/kg administered once daily and measured every three days for 34 days by H and E staining based analysis; assay type: organism-based; settings: in vivo, 816 h, dose 12.5-25 mg/kg, time 34 day
NCI-H929 [15] = assay: Induction of cell cycle arrest in human NCI-H929 cells assessed as inhibition of cyclin D1 protein expression at 0.1 to 1 uM; assay type: functional, cell-based; settings: dose 0.1-1 µM
MM.1R [16] = assay: Induction of cell cycle arrest in human MM1.R cells assessed as inhibition of cyclin B1 protein expression at 0.1 to 1 uM; assay type: functional, cell-based; settings: dose 0.1-1 µM
[17] = Antiproliferative activity against human HAF cells assessed as inhibition of cell viability measured after 72 hrs by MTS assay; assay type: toxicity, cell-based
MM.1R [18] = assay: Downregulation of CANX expression in human MM1.R cells measured after 24 hrs by qRT-PCR analysis; assay type: functional, cell-based; settings: dose 0.125-1 µM
NCI-H929 [19] = assay: Induction of cell cycle arrest in human NCI-H929 cells assessed as inhibition of cyclin B1 protein expression at 0.1 to 1 uM; assay type: functional, cell-based; settings: dose 0.1-1 µM

For `COc1ccc(NC(=O)[C@@H](C)[C@H]2CC[C@H]3[C@@H]4C(=O)C=C5C(C)(C)C(=O)C(C#N)=C[C@]5(C)[C@H]4CC[C@]23C)cc1`, the Activity (MM.1R [1]) was “Active”, the Activity (NCI-H929 [2]) was 10.56% and the Activity (NCI-H929 [3]) was “Active”. For the same compound, the “Ratio IC50” value [4] was 30, the Activity [5] was “inactive” and the Activity [6] was “Non-toxic”. The Activity (NCI-H929 [7]) was “Active”, the Activity (NCI-H929 [8]) was “Active” and the Activity (MM.1R [9]) was “Active”. The Activity (HaCaT) was “inactive”, the Activity (NCI-H929 [10]) was “Active” and the Activity (NCI-H929 [11]) was 11.45%. The Cmax [12] was 174 ng/mL, the Tmax [13] was 31.8 min and the Activity [14] was “Non-toxic”. The Activity (NCI-H929 [15]) was “Active”, the Activity (MM.1R [16]) was “Active” and the IC50 at 72 h [17] was greater than 100 µM. The Activity (MM.1R [18]) was “Active” and the Activity (NCI-H929 [19]) was “Active”.
